{"source": "patent US20100260689A1", "about": "“REDUCING SHAVING FREQUENCY” (BEIERSDORF AG, priority 2007, published 2010)", "assay": "Cutting force during the shaving of human hair after 24 hours of exposure time (universal test apparatus with cutting force adapter)", "conditions": "products A-D in artificial sweat solution, five hair fibers cut, 90° cutting angle", "description": "The measurements are thereby carried out on a universal test apparatus with cutting force adapter with four friction bearings and recorded by means of TestXpert software.\nFive hair fibers were cut for the measurement.\nDue to the influence of the cross section of the hair fiber, a preliminary grouping of the hair fibers to be cut is indispensable, which ensures that the products to be compared were carried out on hair fibers with the same cross section so that relative results are obtained.\nFive hair fibers fixed on one side are cut with the aid of a commercially available blade (single-blade razor with replaceable blade) at a constant speed. The blade is thereby clamped in an adapter specially produced for this purpose, which ensures a guidance of the blade with the aid of four friction bearings. The determination of the cutting force is carried out by maximum force detection. At the same time, the friction force of the friction bearings is recorded during each measurement.\nMeasurement parameters: Measurement speed: 100 mm/min • Cutting angle: 90° • Blade grind: approx. 12°\nThe tested products A-D (see FIG. 1) comprise an artificial sweat solution composed of […]\nIn a further comparative test, the cutting force on human hair was measured after 24 hours of exposure time of three preparations (FIG. 2). […]"}
{"substance": "Aluminum chlorohydrate [aluminum chlorohydrates]", "values": [{"measurement": "cutting force during the shaving of human hair", "setting": "FIG. 1", "value": "reduction of the cutting force"}, {"measurement": "cutting force during the shaving of human hair", "setting": "FIG. 1, listed as ACH", "value": "cutting force reduction"}]}
